Molecules are shown by their SMILES.

Assay [1] concerns D. immitis microfilariae. Briefly: Dirofilaria immitis, microfilariae (DiMF) in vitro motility assay. The class given is cell-based. The settings on record: Dirofilaria immitis, 72 h, read-out: DiMF minimally effective dose (MEC).
Assay [2] relates to Haemonchus contortus L3. The experiment in a line: microbe, parasite or virus in culture. The class given is cell-based. Particulars: Haemonchus contortus, 96 h, read-out: HcL3 Minimal Effective Concentration (MEC).

As for `O=C(NCc1ccnc(F)c1)n1c2c(c3cc(OC(F)(F)F)ccc31)CN(C/C=C/c1cc(F)cc(F)c1)CC2` [Example 407, (E)-2-(3-(3,5-difluorophenyl)allyl)-N-((2-fluoropyridin-4-yl)methyl)-8-(trifluoromethoxy)-1,2,3,4-tetrahydro-5H-pyrido[4,3-b]indole-5-carboxamide], the minimal effective concentration in assay [1] worked out at 5.7 µM; in assay [2] it was 1 µM.

On to `O=C(NCc1ccnc(F)c1)n1c2c(c3cc(OC(F)(F)F)ccc31)CN(C/C=C/c1ccc(Cl)cc1)CC2` [Example 408, (E)-2-(3-(4-chlorophenyl)allyl)-N-((2-fluoropyridin-4-yl)methyl)-8-(trifluoromethoxy)-1,2,3,4-tetrahydro-5H-pyrido[4,3-b]indole-5-carboxamide], for which the minimal effective concentration in assay [1] was 10 µM; in assay [2], 1 µM.

Regarding `O=C(NCc1cnc(Cl)s1)n1c2c(c3cc(OC(F)(F)F)ccc31)CN(C/C=C/c1ccc(Cl)cc1)CC2` [Example 409, (E)-2-(3-(4-chlorophenyl)allyl)-N-((2-chlorothiazol-5-yl)methyl)-8-(trifluoromethoxy)-1,2,3,4-tetrahydro-5H-pyrido[4,3-b]indole-5-carboxamide], the minimal effective concentration turned out to be 10 µM in assay [1] and 1 µM in assay [2].

Regarding `O=C(NCc1ccnc(Cl)c1)n1c2c(c3cc(C(F)(F)F)ccc31)CN(C/C=C/c1ccc(Cl)c(F)c1)CC2` [Example 410, (E)-2-(3-(4-chloro-3-fluorophenyl)allyl)-N-((2-chloropyridin-4-yl)methyl)-8-(trifluoromethyl)-1,2,3,4-tetrahydro-5H-pyrido[4,3-b]indole-5-carboxamide], the figures for the minimal effective concentration in assay [1] and in assay [2] were 10 µM and 1.8 µM, respectively.

As for `N#Cc1ccc(/C=C/CN2CCc3c(c4cc(C(F)(F)F)ccc4n3C(=O)NCc3ccnc(Cl)c3)C2)cc1F` [Example 411, (E)-N-((2-chloropyridin-4-yl)methyl)-2-(3-(4-cyano-3-fluorophenyl)allyl)-8-(trifluoromethyl)-1,2,3,4-tetrahydro-5H-pyrido[4,3-b]indole-5-carboxamide], the minimal effective concentration in assay [1] amounted to 1.8 µM; in assay [2], 0.03 µM.

With `O=C(NCc1ccnc(Cl)c1)n1c2c(c3cc(C(F)(F)F)ccc31)CN(C/C=C/c1ccc(F)cc1F)CC2` [Example 412, (E)-N-((2-chloropyridin-4-yl)methyl)-2-(3-(2,4-difluorophenyl)allyl)-8-(trifluoromethyl)-1,2,3,4-tetrahydro-5H-pyrido[4,3-b]indole-5-carboxamide], the minimal effective concentration in assay [1] is 10 µM; in assay [2] it was 1.8 µM.

As for `O=C(NCc1ccnc(Cl)c1)n1c2c(c3cc(C(F)(F)F)ccc31)CN(C/C=C/c1ccc(F)c(Cl)c1)CC2` [Example 413, (E)-2-(3-(3-chloro-4-fluorophenyl)allyl)-N-((2-chloropyridin-4-yl)methyl)-8-(trifluoromethyl)-1,2,3,4-tetrahydro-5H-pyrido[4,3-b]indole-5-carboxamide], the minimal effective concentration in assay [1] is > 100 µM; in assay [2], 1.8 µM.

For `O=C(NCc1ccnc(Cl)c1)n1c2c(c3cc(C(F)(F)F)ccc31)CN(C/C=C/c1ccc(F)c(F)c1)CC2` [Example 414, (E)-N-((2-chloropyridin-4-yl)methyl)-2-(3-(3,4-difluorophenyl)allyl)-8-(trifluoromethyl)-1,2,3,4-tetrahydro-5H-pyrido[4,3-b]indole-5-carboxamide], the minimal effective concentration in assay [1] was 10 µM; in assay [2] it was 1 µM.

Turning to `O=C(NCc1ccnc(F)c1)n1c2c(c3cc(C(F)(F)F)ccc31)CN(C/C=C/c1ccc(Cl)c(F)c1)CC2` [Example 415, (E)-2-(3-(4-chloro-3-fluorophenyl)allyl)-N-((2-fluoropyridin-4-yl)methyl)-8-(trifluoromethyl)-1,2,3,4-tetrahydro-5H-pyrido[4,3-b]indole-5-carboxamide], the minimal effective concentration in assay [1] came to 12.4 µM; in assay [2], 2.7 µM.

In the case of `N#Cc1ccc(/C=C/CN2CCc3c(c4cc(C(F)(F)F)ccc4n3C(=O)NCc3ccnc(F)c3)C2)cc1F` [Example 416, (E)-2-(3-(4-cyano-3-fluorophenyl)allyl)-N-((2-fluoropyridin-4-yl)methyl)-8-(trifluoromethyl)-1,2,3,4-tetrahydro-5H-pyrido[4,3-b]indole-5-carboxamide], the minimal effective concentration in assay [1] is 57.4 µM; in assay [2] it was 1.8 µM.

As for `O=C(NCc1ccnc(F)c1)n1c2c(c3cc(C(F)(F)F)ccc31)CN(C/C=C/c1ccc(Cl)c(Cl)c1)CC2` [Example 422, (E)-2-(3-(3,4-dichlorophenyl)allyl)-N-((2-fluoropyridin-4-yl)methyl)-8-(trifluoromethyl)-1,2,3,4-tetrahydro-5H-pyrido[4,3-b]indole-5-carboxamide], the minimal effective concentration in assay [1] came to 18.2 µM; in assay [2], 10 µM.

For `O=C(NCc1ccnc(Cl)c1)n1c2c(c3ccc(C(F)(F)F)cc31)CN(C/C=C/c1ccc(C(F)(F)F)cc1)CC2` [Example 425, (E)-N-((2-chloropyridin-4-yl)methyl)-7-(trifluoromethyl)-2-(3-(4-(trifluoro-methyl)phenyl)allyl)-1,2,3,4-tetrahydro-5H-pyrido[4,3-b]indole-5-carboxamide], the minimal effective concentration in assay [1] is 15.8 µM; in assay [2] it was > 100 µM.

With `Cc1ccc2c(c1)c1c(n2C(=O)NCc2ccnc(Cl)c2)CCN(C/C=C/c2ccc(C#N)cc2)C1` [Example 430, (E)-N-((2-chloropyridin-4-yl)methyl)-2-(3-(4-cyanophenyl)allyl)-8-methyl-1,2,3,4-tetrahydro-5H-pyrido[4,3-b]indole-5-carboxamide], the minimal effective concentration is > 100 µM in assay [1] and 1 µM in assay [2].

Regarding `Cc1ccc2c(c1)c1c(n2C(=O)NCc2ccnc(Cl)c2)CCN(C/C=C/c2ccc(Cl)cc2)C1` [Example 431, (E)-2-(3-(4-chlorophenyl)allyl)-N-((2-chloropyridin-4-yl)methyl)-8-methyl-1,2,3,4-tetrahydro-5H-pyrido[4,3-b]indole-5-carboxamide], the minimal effective concentration turned out to be 3.3 µM in assay [1] and 1 µM in assay [2].

With `Cc1ccc2c(c1)c1c(n2C(=O)NCc2ccnc(Cl)c2)CCN(C/C=C/c2ccc(Cl)c(Cl)c2)C1` [Example 432, (E)-N-((2-chloropyridin-4-yl)methyl)-2-(3-(3,4-dichlorophenyl)allyl)-8-methyl-1,2,3,4-tetrahydro-5H-pyrido[4,3-b]indole-5-carboxamide], the minimal effective concentration in assay [1] is 57.4 µM; in assay [2], 1 µM.

Regarding `Cc1ccc2c(c1)c1c(n2C(=O)NCc2ccnc(Cl)c2)CCN(C/C=C/c2ccc(F)cc2)C1` [Example 433, (E)-N-((2-chloropyridin-4-yl)methyl)-2-(3-(4-fluorophenyl)allyl)-8-methyl-1,2,3,4-tetrahydro-5H-pyrido[4,3-b]indole-5-carboxamide], the minimal effective concentration in assay [1] was 5.7 µM; in assay [2], 0.5 µM.

`Cc1ccc2c(c1)c1c(n2C(=O)NCc2ccnc(Cl)c2)CCN(C/C=C/c2ccc(OC(F)(F)F)cc2)C1` [Example 434, (E)-N-((2-chloropyridin-4-yl)methyl)-8-methyl-2-(3-(4-(trifluoromethoxy)-phenyl)allyl)-1,2,3,4-tetrahydro-5H-pyrido[4,3-b]indole-5-carboxamide]: the minimal effective concentration worked out at 5.7 µM in assay [1] and 3.3 µM in assay [2].

With `Cc1ccc2c(c1)c1c(n2C(=O)NCc2ccnc(Cl)c2)CCN(C/C=C/c2ccc(C(F)(F)F)cc2)C1` [Example 435, (E)-N-((2-chloropyridin-4-yl)methyl)-8-methyl-2-(3-(4-(trifluoromethyl)-phenyl)allyl)-1,2,3,4-tetrahydro-5H-pyrido[4,3-b]indole-5-carboxamide], the minimal effective concentration in assay [1] and in assay [2] was 5.7 µM throughout.

For the compound `O=C(NCc1ccnc(Cl)c1)n1c2c(c3c4ccccc4ccc31)CN(C/C=C/c1ccc(Cl)cc1)CC2` [Example 436, (E)-10-(3-(4-chlorophenyl)allyl)-N-((2-chloropyridin-4-yl)methyl)-8,9,10,11-tetrahydro-7H-benzo[e]pyrido[4,3-b]indole-7-carboxamide], the values for the minimal effective concentration in assay [1] and in assay [2] were 18.2 µM and > 100 µM, respectively.

Turning to `O=C(NCc1ccnc(Cl)c1)n1c2c(c3ccc(Br)cc31)CN(C/C=C/c1ccc(Cl)c(F)c1)CC2` [Example 437, (E)-7-bromo-2-(3-(4-chloro-3-fluorophenyl)allyl)-N-((2-chloropyridin-4-yl)methyl)-1,2,3,4-tetrahydro-5H-pyrido[4,3-b]indole-5-carboxamide], the minimal effective concentration amounted to 10 µM in assay [1] and 1 µM in assay [2].

Regarding `N#Cc1ccc(/C=C/CN2CCc3c(c4ccc(Br)cc4n3C(=O)NCc3ccnc(Cl)c3)C2)cc1F` [Example 438, (E)-7-bromo-N-((2-chloropyridin-4-yl)methyl)-2-(3-(4-cyano-3-fluorophenyl)allyl)-1,2,3,4-tetrahydro-5H-pyrido[4,3-b]indole-5-carboxamide], the values for the minimal effective concentration in assay [1] and in assay [2] were 18.2 µM and > 100 µM, respectively.

`O=C(NCc1ccnc(Cl)c1)n1c2c(c3ccc(Br)cc31)CN(C/C=C/c1ccc(F)c(Cl)c1)CC2` [Example 439, (E)-7-bromo-2-(3-(3-chloro-4-fluorophenyl)allyl)-N-((2-chloropyridin-4-yl)methyl)-1,2,3,4-tetrahydro-5H-pyrido[4,3-b]indole-5-carboxamide]: the minimal effective concentration came to 18.2 µM in assay [1] and 1.8 µM in assay [2].

`O=C(NCc1ccnc(Cl)c1)n1c2c(c3ccc(Br)cc31)CN(C/C=C/c1ccc(F)c(F)c1)CC2` [Example 440, (E)-7-bromo-N-((2-chloropyridin-4-yl)methyl)-2-(3-(3,4-difluorophenyl)allyl)-1,2,3,4-tetrahydro-5H-pyrido[4,3-b]indole-5-carboxamide]: the minimal effective concentration in assay [1] amounted to 10 µM; in assay [2] it was 1.8 µM.

These data come from patent US10570129B2 (Zoetis Services LLC, priority 2015, dated 2020).
